Literature values, collected in patent US20030009042A1, “Method for making hydroxy-25-ene-vitamin D compounds” (Bone Care International, Inc., priority 1998, published 2003).
Like-named read-outs stand apart in the source and are kept apart here.

Tests used:
[1] = oral, 0.5 μg/day, postmenopausal women
[2] = not given; remark: listed apart in the source

## C=C1/C(=C\C=C2/CCC[C@]3(C)[C@@H]([C@H](C)CCCC(C)(C)O)CC[C@@H]23)C[C@@H](O)C[C@@H]1O [1α,25-dihydroxyvitamin D3]
[1]
  intestinal calcium absorption and calcium balance: improved intestinal calcium absorption as well as calcium balance
Dosage levels below 0.5 μg/day
  effects on bone mass or mineral content: no effects are observed
Dosage ranges taught in the '596 Patent
  efficacy in preventing or restoring loss of bone mass or bone mineral content: at best, modest efficacy

## C=C1/C(=C\C=C2/CCC[C@]3(C)[C@@H]([C@H](C)CCCC(C)C)CC[C@@H]23)C[C@@H](O)C[C@@H]1O [1α-hydroxyvitamin D3]
1 μg/day, Japan, population with low calcium intake
  efficacy (bone mass): efficacy is found
Two μg/day, patients exhibiting senile osteoporosis
  efficacy in increasing bone mass: found to have efficacy in increasing bone mass
[2]; 1 μg/day
  toxicity, percentage of the patients: approximately 20%
[2]; 2 μg/day
  toxicity, percentage of the patients: approximately 67%
